{
  "source": "ChEMBL document CHEMBL1201862",
  "about": "“PubChem BioAssay data set” (2004)",
  "key": {"cells [1]": {"assay": "cells", "format": "functional, cell-based"}, "[2]": {"assay": "alpha-synuclein stem-loop translation blockers – luminescence, H4 neuroglioblastoma cells, dose confirmation, confirmation (AID 2454);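 also: potency for inhibition of the luciferase signal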", "format": "functional, cell-based"}, "[3]": {"assay": "alpha-synuclein stem-loop luciferase translation blockers – H4 neuroglioma cells, luminescence, confirmation (AID 1988)", "format": "functional, cell-based"}, "[4]": {"assay": "luciferase reporter signal suppression in cells – H4 neuroglioma cells, luminescence, dose response (AID 1990)", "format": "functional, cell-based"}, "[5]": {"assay": "luciferase reporter signal reduction – luminescence, H4-C neuroglioblastoma cells, dose response (AID 2458);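 also: H4 neuroglioblastoma cells stably carrying a luciferase reporter gene fusion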", "format": "functional, cell-based"}, "[6]": {"assay": "Luminescence Cell-Based Dose Response HTS to Identify Inhibitors of 5'UTR Stem-Loop Driven Prion Protein mRNA Translation in H4 Neuroglioblastoma Cells. [Related pubchem assays: 1827 (Project Summary), 1813 (Primary HTS)]", "format": "functional"}, "[7]": {"molecular_target": "Eukaryotic translation initiation factor 4E (Mus musculus, UniProt P63073)", "sequence (P63073 whole entry)": "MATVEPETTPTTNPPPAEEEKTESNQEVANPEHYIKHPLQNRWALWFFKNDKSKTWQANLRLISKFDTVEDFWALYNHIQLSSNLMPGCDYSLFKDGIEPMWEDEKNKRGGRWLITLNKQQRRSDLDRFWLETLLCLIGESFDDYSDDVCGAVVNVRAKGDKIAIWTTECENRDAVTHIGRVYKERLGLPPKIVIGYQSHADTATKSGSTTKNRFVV", "assay": "blockers of eIF4G binding by eIF4E – biochemical, TR-FRET, dose response (AID 855);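 also: potency for disrupting eIF4E binding to eIF4GI seen as loss of FRET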", "format": "functional"}, "cells [8]": {"assay": "cells"}, "[9]": {"assay": "viability of uninfected HEp-2 cells – cell-based, HTS, cytotoxicity control for RSV inhibitor project, dose response (AID 2410)", "format": "functional", "conditions": "human respiratory syncytial virus"}, "Cytochrome P450 2D6": {"molecular_target": "Cytochrome P450 2D6 (Homo sapiens, UniProt P10635)", "sequence (P10635 whole entry)": "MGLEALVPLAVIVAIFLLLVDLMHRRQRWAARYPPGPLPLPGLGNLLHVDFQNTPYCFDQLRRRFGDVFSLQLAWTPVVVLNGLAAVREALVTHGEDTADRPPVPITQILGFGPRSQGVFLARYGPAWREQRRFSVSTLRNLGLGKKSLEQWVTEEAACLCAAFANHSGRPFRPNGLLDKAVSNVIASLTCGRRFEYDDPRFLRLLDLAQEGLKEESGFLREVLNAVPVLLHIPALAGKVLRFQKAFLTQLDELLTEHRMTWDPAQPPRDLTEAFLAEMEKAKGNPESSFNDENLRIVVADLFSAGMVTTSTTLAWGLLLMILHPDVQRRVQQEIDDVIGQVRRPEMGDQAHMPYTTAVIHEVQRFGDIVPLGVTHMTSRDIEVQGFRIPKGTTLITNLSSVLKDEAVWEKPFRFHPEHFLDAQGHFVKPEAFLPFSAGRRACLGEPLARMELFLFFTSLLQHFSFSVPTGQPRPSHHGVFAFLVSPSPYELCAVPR"}, "[10]": {"molecular_target": "DNA dC->dU-editing enzyme APOBEC-3A (Homo sapiens, UniProt P31941)", "sequence (P31941 whole entry)": "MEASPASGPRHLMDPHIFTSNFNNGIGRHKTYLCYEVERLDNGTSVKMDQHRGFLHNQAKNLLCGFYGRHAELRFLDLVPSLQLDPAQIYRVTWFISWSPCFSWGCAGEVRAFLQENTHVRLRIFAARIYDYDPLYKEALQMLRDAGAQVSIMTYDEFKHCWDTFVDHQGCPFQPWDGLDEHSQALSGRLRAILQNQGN", "assay": "Dose Response confirmation of small molecule APOBEC3A DNA Deaminase Inhibitors via a fluorescence-based single-stranded DNA deaminase assay. [Related pubchem assays (depositor defined):AID493011, AID493024]", "format": "functional"}, "[11]": {"molecular_target": "DNA dC->dU-editing enzyme APOBEC-3G (Homo sapiens, UniProt Q9HC16)", "sequence (Q9HC16 whole entry)": "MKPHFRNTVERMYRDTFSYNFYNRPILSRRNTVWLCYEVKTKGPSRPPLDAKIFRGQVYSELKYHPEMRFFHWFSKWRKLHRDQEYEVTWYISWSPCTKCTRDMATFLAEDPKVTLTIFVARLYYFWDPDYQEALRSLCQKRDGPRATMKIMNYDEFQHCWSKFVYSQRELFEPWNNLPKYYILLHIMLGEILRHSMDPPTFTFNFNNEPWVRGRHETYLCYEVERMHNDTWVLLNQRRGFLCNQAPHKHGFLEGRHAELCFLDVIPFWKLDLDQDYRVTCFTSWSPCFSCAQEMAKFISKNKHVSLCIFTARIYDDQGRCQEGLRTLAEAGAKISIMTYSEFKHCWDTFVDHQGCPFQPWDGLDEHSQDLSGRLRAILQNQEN", "format": "functional"}, "Cytochrome P450 2C9": {"molecular_target": "Cytochrome P450 2C9 (Homo sapiens, UniProt P11712)", "sequence (P11712 whole entry)": "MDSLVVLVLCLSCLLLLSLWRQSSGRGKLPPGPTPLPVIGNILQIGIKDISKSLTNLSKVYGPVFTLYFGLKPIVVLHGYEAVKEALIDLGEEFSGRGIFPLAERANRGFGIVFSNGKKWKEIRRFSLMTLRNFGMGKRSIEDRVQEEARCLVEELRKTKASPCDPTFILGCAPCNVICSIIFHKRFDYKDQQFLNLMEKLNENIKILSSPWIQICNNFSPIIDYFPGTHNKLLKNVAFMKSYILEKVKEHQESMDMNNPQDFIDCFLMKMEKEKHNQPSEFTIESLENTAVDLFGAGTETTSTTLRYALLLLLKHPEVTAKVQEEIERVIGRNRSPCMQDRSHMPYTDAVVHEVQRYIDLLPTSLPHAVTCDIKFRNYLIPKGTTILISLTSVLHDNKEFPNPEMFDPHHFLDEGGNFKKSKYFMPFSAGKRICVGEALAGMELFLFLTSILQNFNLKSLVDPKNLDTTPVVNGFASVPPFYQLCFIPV"}, "BJ [12]": {"test_system": "BJ", "assay": "BJ-TERT-LT-ST fibroblast viability loss – cell-based, RAS-independent, luminescence, dose response (AID 1935);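 also: BJ fibroblasts immortalized with TERT plus LT and ST oncogenes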", "format": "functional", "conditions": "Homo sapiens"}, "[13]": {"assay": "NIH3T3 cell viability loss – ATP luminescence, mouse fibroblasts, counter-screen, dose response (AID 2010);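 also: cells exposed to compound for about 90 hours before reading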", "format": "functional, cell-based"}, "[14]": {"assay": "DRD fibroblast viability loss – cell-based, non-viral oncogenic, luminescence, dose response (AID 1934)", "format": "functional", "conditions": "Homo sapiens"}, "[15]": {"assay": "Trypanosoma cruzi growth suppression in host cells – NIH3T3 host cells, beta-gal luminescence, confirmation (AID 2044);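 also: intracellular parasites grown in NIH/3T3 mouse fibroblasts as host cells; luminescent beta-galactosidase reporter signal from transgenic T. cruzi replicating inside host cells; inhibitors lower the luminescence signal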", "format": "functional, cell-based"}, "[16]": {"molecular_target": "FAD-linked sulfhydryl oxidase ALR (Homo sapiens, UniProt P55789)", "sequence (P55789 whole entry)": "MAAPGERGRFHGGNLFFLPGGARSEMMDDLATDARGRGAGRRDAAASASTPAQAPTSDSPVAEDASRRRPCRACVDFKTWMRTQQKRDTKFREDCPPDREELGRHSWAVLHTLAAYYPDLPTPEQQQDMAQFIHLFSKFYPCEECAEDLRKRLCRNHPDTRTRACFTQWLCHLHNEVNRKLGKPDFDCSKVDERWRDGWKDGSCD", "assay": "ALR-catalysed DTT oxidation blockers – biochemical, H2O2 detection, luminescence, cherry-pick, dose response (AID 493248)"}, "BJ [17]": {"test_system": "BJ", "assay": "cells", "format": "functional, cell-based", "conditions": "Homo sapiens"}, "BJ [18]": {"test_system": "BJ", "assay": "BJ-TERT fibroblast viability loss – cell-based, RAS-independent, luminescence, dose response (AID 1933)", "format": "functional", "conditions": "Homo sapiens"}, "[19]": {"molecular_target": "T1, Carboxy-terminal domain RNA polymerase II polypeptide A small phosphatase 1 (Homo sapiens, UniProt Q9GZU7)", "T1 sequence (Q9GZU7 whole entry)": "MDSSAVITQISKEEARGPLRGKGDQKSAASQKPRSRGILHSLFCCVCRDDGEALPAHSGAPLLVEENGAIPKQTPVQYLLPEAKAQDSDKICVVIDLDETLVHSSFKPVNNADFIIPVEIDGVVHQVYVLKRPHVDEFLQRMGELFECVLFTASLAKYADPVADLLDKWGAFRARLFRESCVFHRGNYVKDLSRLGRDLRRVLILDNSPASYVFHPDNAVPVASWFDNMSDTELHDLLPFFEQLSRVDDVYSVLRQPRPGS", "assay": "CTDSP1 inhibitors, concentration-response, biochemical, absorbance readout, ultra-high-throughput screen actives (AID 540297)", "format": "functional"}},
  "note": "Activity calls are given as the source filed them. Rule as the data show it, for most assays here: actives have a measured EC50 and inactives only a lower limit.",
  "data": [
    {"compound": "c1ccc(-c2noc(-c3ccc4ccccc4c3)n2)cc1", "values": [
      {"measurement": "EC50", "setting": "cells [1]", "result": "694 nM (inconclusive)"},
      {"measurement": "EC50", "setting": "[2]", "result": "636 nM (active)"},
      {"measurement": "EC50", "setting": "[3]", "result": "< 100 nM (active)"},
      {"measurement": "EC50", "setting": "[4]", "result": "< 100 nM (active)"},
      {"measurement": "EC50", "setting": "[5]", "result": "974 nM (active)"},
      {"measurement": "EC50", "setting": "[6]", "result": "8760 nM (active)"}
    ]},
    {"compound": "CC(=O)C1=C(c2ccccc2)OC(N)=C(C#N)C1c1ccc(O)cc1", "note": "(stereo unspecified)", "values": [
      {"measurement": "IC50", "setting": "[7]", "result": "> 64000 nM (inactive)"}
    ]},
    {"compound": "COCCCNC(=O)c1ccc(Cn2c(=O)c3ccccc3n(Cc3ccc(C)cc3)c2=O)cc1", "values": [
      {"measurement": "IC50", "setting": "cells [8]", "result": "2980 nM (active)"}
    ]},
    {"compound": "O=C(CNc1cccc(C(F)(F)F)c1)N/N=C/c1cn(-c2ccccc2)nc1-c1ccccc1", "values": [
      {"measurement": "IC50", "setting": "cells [8]", "result": "19800 nM (active)"},
      {"measurement": "CC50", "setting": "[9]", "result": "> 50000 nM (active)"}
    ]},
    {"compound": "Cc1[nH]c2ccccc2c1/C=C(\\C#N)C(=O)NC(C)c1ccccc1", "note": "(stereo unspecified)", "values": [
      {"measurement": "AC50", "setting": "Cytochrome P450 2D6", "result": "8910 nM (inconclusive)"},
      {"measurement": "IC50", "setting": "[10]", "result": "1870 nM (active)"},
      {"measurement": "IC50", "setting": "[11]", "result": "2640 nM (active)"},
      {"measurement": "AC50", "setting": "Cytochrome P450 2C9", "result": "inconclusive"}
    ]},
    {"compound": "COc1ccccc1-c1noc(CSc2nc(C)cc(O)n2)n1", "values": [
      {"measurement": "IC50", "setting": "[10]", "result": "16600 nM (active)"},
      {"measurement": "IC50", "setting": "[11]", "result": "19400 nM (active)"}
    ]},
    {"compound": "COc1ccc(OC)c(Nc2c3c(nc4ccccc24)CCC3)c1", "values": [
      {"measurement": "EC50", "setting": "BJ [12]", "result": "284 nM (inconclusive)"},
      {"measurement": "EC50", "setting": "cells [1]", "result": "804 nM (active)"},
      {"measurement": "EC50", "setting": "[13]", "result": "432 nM (active)"},
      {"measurement": "EC50", "setting": "[2]", "result": "1180 nM (active)"},
      {"measurement": "EC50", "setting": "[3]", "result": "< 100 nM (active)"},
      {"measurement": "EC50", "setting": "[4]", "result": "3290 nM (active)"},
      {"measurement": "EC50", "setting": "[14]", "result": "12400 nM (active)"},
      {"measurement": "EC50", "setting": "[5]", "result": "716 nM (active)"},
      {"measurement": "EC50", "setting": "[15]", "result": "3150 nM (active)"},
      {"measurement": "AC50", "setting": "[16]", "result": "16200 nM (active)"},
      {"measurement": "EC50", "setting": "[6]", "result": "355 nM (active)"},
      {"measurement": "EC50", "setting": "BJ [17]", "result": "15000 nM (inconclusive)"},
      {"measurement": "EC50", "setting": "BJ [18]", "result": "463 nM (active)"}
    ]},
    {"compound": "O=C(NCc1ccc(F)cc1)c1c2c(nc3ccccc13)CCC2", "values": [
      {"measurement": "IC50", "setting": "[19]", "result": "5440 nM (active)"},
      {"measurement": "IC50", "setting": "[7]", "result": "50000 nM (inactive)"}
    ]}
  ]
}
